Test results: ChEMBL document CHEMBL4680085 (J Med Chem, 2016)
Calls of active or inactive are those of the source. The calls are words filed in the database; no cut-off is given here.

Key:
SH-SY5Y [1] = assay: Neuroprotection in human SH-SY5Y cells assessed as reduction in beta-amyloid peptide (1-40)-induced cell death at 3 uM incubated for 24 hrs by MTT assay; format: functional; set-up: scale not given: the % may be the effect or the level left
SH-SY5Y [2] = assay: Neuroprotection in human SH-SY5Y cells assessed as reduction in H2O2-induced cell death at 3 uM incubated for 24 hrs by MTT assay; format: functional
Cholinesterase [3] = target: Cholinesterase (Equus caballus, UniProt P81908)
Description: Inhibition of horse serum BuChE pre-incubated for 10 mins before addition of butyrylthiocholine iodide substrate and further incubated for 15 mins by Ellman's method

SH-SY5Y [4] = assay: Neuroprotection in human SH-SY5Y cells assessed as reduction in Rotenone/Oligomycin A -induced cell death at 1 uM incubated for 24 hrs by MTT assay; format: functional; set-up: scale not given: the % may be the effect or the level left
Acetylcholinesterase [5] = target: Acetylcholinesterase (Electrophorus electricus, UniProt O42275); assay: Inhibition of Electrophorus electricus AChE pre-incubated for 10 mins before addition of acetylthiocholine iodide substrate and further incubated for 15 mins by Ellman's method
SH-SY5Y [6] = assay: Neuroprotection in human SH-SY5Y cells assessed as reduction in Rotenone/Oligomycin A -induced cell death at 3 uM incubated for 24 hrs by MTT assay; format: functional; set-up: scale not given: the % may be the effect or the level left
[7] = Effective permeability at 100 uM after 3 to 6 hrs by PAMPA assay; format: ADME; conditions: time 3-6 hrs, read-out: Peff
in vitro [8] = conditions: human, HepG2 cells
Description: Toxicity in human HepG2 cells assessed as cell viability at 300 uM by MTT assay relative to control

SH-SY5Y [9] = assay: Neuroprotection in human SH-SY5Y cells assessed as reduction in beta-amyloid peptide (1-42)-induced cell death at 1 uM incubated for 24 hrs by MTT assay; format: functional; set-up: scale not given: the % may be the effect or the level left
SH-SY5Y [10] = assay: Neuroprotection in human SH-SY5Y cells assessed as reduction in beta-amyloid peptide (1-40)-induced cell death at 1 uM incubated for 24 hrs by MTT assay; format: functional; set-up: scale not given: the % may be the effect or the level left
Cholinesterase [11] = target: T1, Cholinesterase (Homo sapiens, UniProt P06276); assay: Inhibition of BuChE in human erythrocyte hemo-lyzates pre-incubated for 5 mins before addition of butyrylthiocholine iodide substrate by Ellman's method; format: tissue-based
[12] = target: T2, Nuclear factor erythroid 2-related factor 2 (Homo sapiens) (UniProt Q16236); assay: Activation of NRF2 in human MCF-7/AREc32 cells at 10 to 30 uM incubated for 24 hrs by luciferase reporter gene assay; format: cell-based; conditions: MCF7, filed as activator, dose 10-30 µM
T2 sequence (whole entry): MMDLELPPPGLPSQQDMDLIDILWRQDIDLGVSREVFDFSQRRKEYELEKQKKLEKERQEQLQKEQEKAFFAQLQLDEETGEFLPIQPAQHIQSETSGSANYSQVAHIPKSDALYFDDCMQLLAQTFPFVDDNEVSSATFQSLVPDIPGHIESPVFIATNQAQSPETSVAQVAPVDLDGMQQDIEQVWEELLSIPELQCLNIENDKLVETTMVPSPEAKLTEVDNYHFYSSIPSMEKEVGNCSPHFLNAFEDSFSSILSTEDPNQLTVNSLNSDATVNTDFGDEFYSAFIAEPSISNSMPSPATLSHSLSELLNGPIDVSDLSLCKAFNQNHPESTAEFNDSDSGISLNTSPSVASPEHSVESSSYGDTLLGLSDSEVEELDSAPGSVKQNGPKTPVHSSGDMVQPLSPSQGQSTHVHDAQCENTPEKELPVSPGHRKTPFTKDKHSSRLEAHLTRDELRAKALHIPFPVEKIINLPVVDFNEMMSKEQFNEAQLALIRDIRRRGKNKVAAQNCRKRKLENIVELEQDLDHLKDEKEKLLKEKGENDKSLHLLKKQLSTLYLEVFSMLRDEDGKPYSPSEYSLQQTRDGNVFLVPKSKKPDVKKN

in vitro [13] = conditions: human, HepG2 cells; remark: listed apart in the source
Description: Toxicity in human HepG2 cells assessed as cell viability at 1000 uM by MTT assay relative to control

[14] = target: T2, Nuclear factor erythroid 2-related factor 2 (Homo sapiens); assay: Activation of NRF2 in human MCF-7/AREc32 cells assessed as concentration required to double Nrf2 transcriptional pathway by measuring specific luciferase reporter activity incubated for 24 hrs by luciferase reporter gene assay; format: cell-based; conditions: MCF7, filed as activator
SH-SY5Y [15] = assay: Neuroprotection in human SH-SY5Y cells assessed as reduction in H2O2-induced cell death at 1 uM incubated for 24 hrs by MTT assay; format: functional; set-up: scale not given: the % may be the effect or the level left
SH-SY5Y [16] = assay: Neuroprotection in human SH-SY5Y cells assessed as reduction in beta-amyloid peptide (1-42)-induced cell death at 3 uM incubated for 24 hrs by MTT assay; format: functional; set-up: scale not given: the % may be the effect or the level left
[17] = target: T2, Nuclear factor erythroid 2-related factor 2 (Homo sapiens); assay: Activation of NRF2 in human MCF-7/AREc32 cells at 3 uM incubated for 24 hrs by luciferase reporter gene assay; format: cell-based; conditions: MCF7, filed as activator
Acetylcholinesterase [18] = target: T3, Acetylcholinesterase (Homo sapiens, UniProt P22303); assay: Inhibition of AChE in human erythrocyte hemo-lyzates pre-incubated for 5 mins before addition of acetylthiocholine iodide substrate by Ellman's method; format: tissue-based
in vitro [19] = conditions: human, HepG2 cells; remark: listed apart in the source
Description: Toxicity in human HepG2 cells assessed as cell viability at 100 uM by MTT assay relative to control

[20] = Ratio of antioxidant activity of melatonin to antioxidant activity of test compound assessed as AAPH radical scavenging activity incubated for 15 mins by ORAC-FL method relative to Trolox; format: functional
Cholinesterase [21] = target: T1, Cholinesterase; assay: Competitive type inhibition of BuChE in human erythrocyte hemo-lyzates using […] substrate by Ellman's method based Lineweaver-Burk plot analysis; format: tissue-based
Acetylcholinesterase [22] = target: T3, Acetylcholinesterase; assay: Mixed type inhibition of AChE in human erythrocyte hemo-lyzates using acetylthiocholine iodide substrate by Ellman's method based Lineweaver-Burk plot analysis; format: tissue-based
[23] = Ratio of antioxidant activity of LA to antioxidant activity of test compound assessed as AAPH radical scavenging activity incubated for 15 mins by ORAC-FL method relative to Trolox; format: functional
[24] = Ratio of antioxidant activity of FA to antioxidant activity of test compound assessed as AAPH radical scavenging activity incubated for 15 mins by ORAC-FL method relative to Trolox; format: functional
[25] = target: Cholinesterase (Equus caballus) (UniProt P81908); assay: Potency index, ratio of IC50 for tacrine to IC50 for test compound for inhibition of horse serum BuChE
[26] = target: Acetylcholinesterase (Electrophorus electricus) (UniProt O42275); assay: Potency index, ratio of IC50 for tacrine to IC50 for test compound for inhibition of Electrophorus electricus AChE
Acetylcholinesterase (Electrophorus electricus), sequence (O42275 24-633 limits assumed): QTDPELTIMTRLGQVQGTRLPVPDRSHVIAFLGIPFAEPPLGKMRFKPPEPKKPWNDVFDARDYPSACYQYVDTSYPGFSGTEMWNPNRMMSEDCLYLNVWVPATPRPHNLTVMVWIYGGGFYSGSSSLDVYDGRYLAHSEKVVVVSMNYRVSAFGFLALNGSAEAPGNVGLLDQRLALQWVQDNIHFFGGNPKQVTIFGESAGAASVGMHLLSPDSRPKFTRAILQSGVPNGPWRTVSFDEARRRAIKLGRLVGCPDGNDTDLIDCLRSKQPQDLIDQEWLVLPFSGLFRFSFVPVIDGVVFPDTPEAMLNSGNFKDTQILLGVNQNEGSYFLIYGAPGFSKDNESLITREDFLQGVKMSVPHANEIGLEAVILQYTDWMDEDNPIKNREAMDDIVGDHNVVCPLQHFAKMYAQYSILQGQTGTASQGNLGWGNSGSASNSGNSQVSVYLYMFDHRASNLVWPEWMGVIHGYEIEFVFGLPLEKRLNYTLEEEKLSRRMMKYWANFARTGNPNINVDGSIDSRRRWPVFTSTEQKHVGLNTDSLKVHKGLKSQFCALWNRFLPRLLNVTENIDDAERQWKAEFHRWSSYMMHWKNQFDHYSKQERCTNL

Cholinesterase (Equus caballus, UniProt P81908), sequence (P81908 whole entry): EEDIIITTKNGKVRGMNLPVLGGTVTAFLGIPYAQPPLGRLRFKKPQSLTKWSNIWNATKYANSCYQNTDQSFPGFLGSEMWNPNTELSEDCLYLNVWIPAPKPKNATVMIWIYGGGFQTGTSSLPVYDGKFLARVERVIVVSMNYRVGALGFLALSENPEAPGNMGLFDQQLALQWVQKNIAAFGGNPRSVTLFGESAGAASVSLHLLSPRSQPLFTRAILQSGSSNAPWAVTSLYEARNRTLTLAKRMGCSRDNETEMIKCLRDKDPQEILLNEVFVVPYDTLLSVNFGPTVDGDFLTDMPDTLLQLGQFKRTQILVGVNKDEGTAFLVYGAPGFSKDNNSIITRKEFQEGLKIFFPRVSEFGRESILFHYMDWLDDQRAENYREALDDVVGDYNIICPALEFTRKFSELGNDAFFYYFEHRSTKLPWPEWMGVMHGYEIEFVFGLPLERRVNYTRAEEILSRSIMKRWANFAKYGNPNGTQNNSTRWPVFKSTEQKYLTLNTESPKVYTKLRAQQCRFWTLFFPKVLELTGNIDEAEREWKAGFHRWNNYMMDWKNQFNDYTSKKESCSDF
Acetylcholinesterase (Electrophorus electricus, UniProt O42275), sequence (O42275 whole entry): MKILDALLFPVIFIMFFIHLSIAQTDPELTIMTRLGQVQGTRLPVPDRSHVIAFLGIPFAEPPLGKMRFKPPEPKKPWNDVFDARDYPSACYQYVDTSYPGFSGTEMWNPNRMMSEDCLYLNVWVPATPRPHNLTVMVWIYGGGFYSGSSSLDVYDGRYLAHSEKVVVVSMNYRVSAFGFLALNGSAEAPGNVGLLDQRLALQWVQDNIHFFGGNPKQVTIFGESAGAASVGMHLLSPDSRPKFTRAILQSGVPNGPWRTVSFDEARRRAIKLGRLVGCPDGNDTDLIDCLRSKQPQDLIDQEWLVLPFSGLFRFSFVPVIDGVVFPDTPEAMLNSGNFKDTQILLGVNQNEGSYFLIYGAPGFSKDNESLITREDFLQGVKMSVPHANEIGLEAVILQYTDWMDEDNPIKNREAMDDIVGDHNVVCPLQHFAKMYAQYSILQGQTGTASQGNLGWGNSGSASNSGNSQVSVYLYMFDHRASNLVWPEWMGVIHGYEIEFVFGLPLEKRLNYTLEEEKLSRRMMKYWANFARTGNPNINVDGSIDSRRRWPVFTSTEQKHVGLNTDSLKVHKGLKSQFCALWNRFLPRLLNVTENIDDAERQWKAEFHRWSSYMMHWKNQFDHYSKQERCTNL
T3 sequence (P22303 whole entry): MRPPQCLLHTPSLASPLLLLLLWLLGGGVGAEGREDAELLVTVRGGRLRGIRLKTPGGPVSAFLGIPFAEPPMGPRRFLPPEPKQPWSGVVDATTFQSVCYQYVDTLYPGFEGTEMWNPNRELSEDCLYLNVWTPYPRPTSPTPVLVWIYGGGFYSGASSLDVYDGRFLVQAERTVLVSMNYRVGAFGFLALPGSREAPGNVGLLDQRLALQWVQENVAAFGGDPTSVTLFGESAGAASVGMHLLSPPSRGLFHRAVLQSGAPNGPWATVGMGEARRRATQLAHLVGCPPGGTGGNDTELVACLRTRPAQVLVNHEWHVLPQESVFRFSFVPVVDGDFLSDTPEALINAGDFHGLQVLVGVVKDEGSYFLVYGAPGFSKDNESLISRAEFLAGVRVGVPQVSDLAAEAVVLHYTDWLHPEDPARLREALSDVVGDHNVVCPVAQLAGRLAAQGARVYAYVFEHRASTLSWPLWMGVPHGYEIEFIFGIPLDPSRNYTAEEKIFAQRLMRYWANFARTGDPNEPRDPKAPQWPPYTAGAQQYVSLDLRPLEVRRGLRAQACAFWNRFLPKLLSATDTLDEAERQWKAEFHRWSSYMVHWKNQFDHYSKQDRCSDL
T1 sequence (P06276 whole entry): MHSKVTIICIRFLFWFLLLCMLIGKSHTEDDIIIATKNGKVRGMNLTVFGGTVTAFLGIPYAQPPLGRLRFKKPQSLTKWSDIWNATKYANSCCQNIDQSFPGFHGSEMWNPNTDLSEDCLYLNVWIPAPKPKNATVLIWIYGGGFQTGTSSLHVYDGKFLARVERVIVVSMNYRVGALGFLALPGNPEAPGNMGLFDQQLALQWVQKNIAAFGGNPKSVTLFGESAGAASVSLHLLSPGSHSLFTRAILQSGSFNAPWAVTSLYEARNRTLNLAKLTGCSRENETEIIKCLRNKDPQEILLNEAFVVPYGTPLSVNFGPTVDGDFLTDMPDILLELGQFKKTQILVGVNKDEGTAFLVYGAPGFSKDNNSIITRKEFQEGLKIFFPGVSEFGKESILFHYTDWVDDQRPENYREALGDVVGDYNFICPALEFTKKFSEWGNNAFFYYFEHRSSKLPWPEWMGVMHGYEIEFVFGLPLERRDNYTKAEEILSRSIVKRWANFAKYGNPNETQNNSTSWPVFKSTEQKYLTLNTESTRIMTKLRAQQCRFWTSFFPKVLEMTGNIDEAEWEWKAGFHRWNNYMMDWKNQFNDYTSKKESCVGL
Cholinesterase (Equus caballus), sequence (P81908 whole entry): as the sequence (P81908 whole entry) above

Structure (SMILES)	Activity (SH-SY5Y [1]) [%]	Activity (SH-SY5Y [2])	IC50 (Cholinesterase [3]) [nM]	Activity (SH-SY5Y [4]) [%]	IC50 (Acetylcholinesterase [5]) [nM]	Activity (SH-SY5Y [6]) [%]	Papp at 100 µM [7] [×10⁻⁶ cm/s]	viability at 300 µM (in vitro [8]) [%]	Activity (SH-SY5Y [9]) [%]	Activity (SH-SY5Y [10]) [%]	IC50 (Cholinesterase [11]) [nM]	Activity [12]	viability at 1000 µM (in vitro [13]) [%]	CD [14] [µM]	Activity (SH-SY5Y [15]) [%]	Activity (SH-SY5Y [16])	Activity [17]	IC50 (Acetylcholinesterase [18]) [nM]	viability at 100 µM (in vitro [19]) [%]	other results
COc1ccc2nc3c(c(NCCCCCCCCN(CC(=O)NCCc4c[nH]c5ccc(OC)cc45)C(=O)/C=C/c4ccc(O)c(OC)c4)c2c1)CCCC3	35.1	inactive	12	59.6	29.7	48	1.8	56	28	56.3	336	Active	54.4	5.99	35.9	78.9%	Active	> 10000	61	
COc1ccc2nc3c(c(NCCCCCCCCN(CC(=O)NCCc4c[nH]c5ccc(OC)cc45)C(=O)CCCC[C@@H]4CCSS4)c2c1)CCCC3			8.22		14.8			77.8			1730		44.9					> 10000	86.2	
COC(=O)/C=C/c1ccc(O)c(OC)c1	53.9	56.9%		23.8		21.3			40.7	27.8					51.1	inactive				
COc1ccc2nc3c(c(NCCCCCCCN(CC(=O)NCCc4c[nH]c5ccc(OC)cc45)C(=O)/C=C/c4ccc(O)c(OC)c4)c2c1)CCCC3	56.7	30.9%	2.91	33.7	8.37	41.7	4.2	69.9	81.4	70.6	234	Active	68.7	6.31	37.6	57.4%	Active	1290	84.7	Ratio [20]: 3.96; inhibition (Cholinesterase [21]): Active; inhibition (Acetylcholinesterase [22]): Active; Ratio [23]: 38; Ratio [24]: 2.43
COc1ccc2nc3c(c(NCCCCCCCN(CC(=O)NCCc4c[nH]c5ccc(OC)cc45)C(=O)CCCC[C@@H]4CCSS4)c2c1)CCCC3			5.38		7.56			57.7			2650		48.9					> 10000	62.8	
COc1ccc2[nH]cc(CCNC(=O)CN(CCCCCCCCNc3c4c(nc5ccccc35)CCCC4)C(=O)CCCC[C@@H]3CCSS3)c2c1			1.25		3.62		6.9	58.9			211		48.8					180	86.2	Ratio IC50 [25]: 4; Ratio IC50 [26]: 12.2
